Experimental data from patent publication US20210163976A1, “GENETICALLY ALTERED PLANTS EXPRESSING HETEROLOGOUS RECEPTORS THAT RECOGNIZE LIPO-CHITOOLIGOSACCHARIDES” (Aarhus Universitet, priority 2018, published 2021).
“Also recorded” adds a separate entry of the source. Blank lines part the entries; values can stand above or below the compound they belong to.

How the values were obtained:
Medicago NFP ectodomain = molecular target: T1, Medicago NFP ectodomain (Medicago truncatula, UniProt Q0GXS4); assay: Microscale thermophoresis (MST) binding of ligands to labelled NFP; details: carbohydrate ligands
T1 construct: The Medicago truncatula NFP ectodomain (residues 28-246) was codon-optimized; AcMNPV gp67 signal peptide (replaces native signal peptide 1-27) (N); made in house; host or cells: Sf9 (Spodoptera frugiperda), baculovirus, secreted into medium
T1 sequence (Q0GXS4 28-246): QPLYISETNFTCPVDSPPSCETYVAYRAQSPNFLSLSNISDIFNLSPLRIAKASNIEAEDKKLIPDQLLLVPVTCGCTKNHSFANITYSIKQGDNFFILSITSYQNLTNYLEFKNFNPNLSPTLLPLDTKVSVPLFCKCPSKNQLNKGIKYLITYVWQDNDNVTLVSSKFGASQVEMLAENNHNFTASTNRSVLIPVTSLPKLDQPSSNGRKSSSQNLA
Method: Expression and purification of Medicago NFP ectodomain: The Medicago truncatula NFP ectodomain (residues 28-246) was codon-optimized for insect cell expression (Genscript, Piscataway, USA) and cloned into the pOET4 baculovirus transfer vector (Oxford Expression Technologies). The native NFP signal peptide (residues 1-27, predicted by SignalP 4.1) was replaced with the AcMNPV gp67 signal peptide to facilitate secretion and a hexa-histidine tag was added to the C-terminus. Point mutants of NFP were engineered using site-directed mutagenesis. Recombinant baculoviruses were produced in Sf9 cells (Spodoptera frugiperda) using the FlashBac Gold kit (Oxford Expression technologies) according to the manufacturer's instructions with Lipofectin (ThermoFisher Scientific) as a transfection reagent. Protein expression was performed as follows. Suspension-cultured Sf9 cells were maintained with shaking at 299 K in serum-free MAX-XP (BD-Biosciences, discontinued) or HyClone SFX (GE Healthcare) medium supplemented with 1% Pen-Strep (10000 U/ml, Life technologies) and 1% CD lipid concentrate (Gibco). Protein expression was induced by adding recombinant passage 3 virus once the Sf9 cells reached a cell density of 1.0*10^7^6 cells/ml. After 5-7 days of expression, medium supernatant containing NFP ectodomains was harvested by centrifugation. […]

[1] = molecular target: T2, Medicago NFP ectodomain (NFP-ECD, WT) (Medicago truncatula, UniProt Q0GXS4); assay: Biolayer interferometry (BLI) binding of NFP-ECD to immobilized biotinylated ligands; details: further BLI assays, FIGS. 15B-15E; listed as chitin
T2 construct: The Medicago truncatula NFP ectodomain (residues 28-246) was codon-optimized; AcMNPV gp67 signal peptide (replaces native signal peptide 1-27) (N); made in house; host or cells: Sf9 (Spodoptera frugiperda), baculovirus, secreted into medium
T2 sequence (Q0GXS4 28-246): T1 sequence (Q0GXS4 28-246)
Method: (§1) Expression and purification of Medicago NFP ectodomain: The Medicago truncatula NFP ectodomain (residues 28-246) was codon-optimized for insect cell expression (Genscript, Piscataway, USA) and cloned into the pOET4 baculovirus transfer vector (Oxford Expression Technologies). The native NFP signal peptide (residues 1-27, predicted by SignalP 4.1) was replaced with the AcMNPV gp67 signal peptide to facilitate secretion and a hexa-histidine tag was added to the C-terminus. Point mutants of NFP were engineered using site-directed mutagenesis. Recombinant baculoviruses were produced in Sf9 cells (Spodoptera frugiperda) using the FlashBac Gold kit (Oxford Expression technologies) according to the manufacturer's instructions with Lipofectin (ThermoFisher Scientific) as a transfection reagent. Protein expression was performed as follows. Suspension-cultured Sf9 cells were maintained with shaking at 299 K in serum-free MAX-XP (BD-Biosciences, discontinued) or HyClone SFX (GE Healthcare) medium supplemented with 1% Pen-Strep (10000 U/ml, Life technologies) and 1% CD lipid concentrate (Gibco). Protein expression was induced by adding recombinant passage 3 virus once the Sf9 cells reached a cell density of 1.0*10^7^6 cells/ml. After 5-7 days of expression, medium supernatant containing NFP ectodomains was harvested by centrifugation. This was followed by an overnight dialysis step against 50 mM Tris-HCl pH 8, 200 mM NaCl at 277 K. The NFP ectodomain was enriched by two subsequent steps of Ni-IMAC purification (HisTrap excel/HisTrap HP, both GE Healthcare). For crystallography experiments, N-glycans were removed using the endoglycosidase PNGase F (1:15 (w/w), room temperature, overnight). As a final purification step, NFP ectodomain was purified by SEC on a Superdex 200 10/300 or HiLoad Superdex 200 16/600 (both GE Healthcare) in phosphate buffered saline at pH 7.2 supplemented to a total of 500 mM NaCl (for binding assays) or 50 mM Tris-HCl, 200 mM NaCl (for crystallography). NFP ectodomain elutes as a single, homogeneous peak corresponding to a monomer. Point mutated versions of NFP were expressed and purified following the same protocol.
(§2) Biolayer interferometry (BLI): Binding of NFP and mutated versions of NFP to ligands was measured on an Octet RED 96 system (Pall ForteBio). The ligands used were LCO-IV (from S. meliloti), LCO-V (from S. meliloti), LCO-V (from M. loti), and C06 (from M. loti). S. meliloti LCO consists of a tetrameric/pentameric N-acetylglucosamine backbone that is 0-sulfated on the reducing terminal residue, 0-acetylated on the non-reducing terminal residue, and mono-N-acylated by unsaturated C16 acyl groups. M. loti LCO is a pentameric N-acetylglucosamine with a cis-vaccenic acid and a carbamoyl group at the non-reducing terminal residue together with a 2,4-O-acetylfucose at the reducing terminal residue. Biotinylated ligand conjugates were immobilized on streptavidin biosensors (kinetic quality, Pall ForteBio) at a concentration of 125-250 nM for 5 minutes. The binding assays using the S. meliloti ligands (LCO-IV and LCO-V) were replicated seven times, while the binding assays using the M loti ligands (LCO-V and C06) were replicated six times. Data analysis was performed in GraphPad Prism 6 software (GraphPad Software, Inc.). Equilibrium dissociation constants derived from the steady-state were determined by applying a non-linear regression (one site, specific binding) to the response at equilibrium plotted against the protein concentration. Kinetic parameters were determined by non-linear regression (association followed by dissociation) on the subtracted data.
(§3) Mutated lipochitooligosaccharide (LCO) ligands: S. meliloti LCO consists of a tetrameric/pentameric N-acetylglucosamine backbone that is O-sulfated on the reducing terminal residue, O-acetylated on the non-reducing terminal residue, and mono-N-acylated by unsaturated C16 acyl groups. […]

HvRLK10 ectodomain = assay: BLI binding of HvRLK10 ectodomain to ligands; set-up: species or system H. vulgare; details: FIGS. 13A, 13C, 13D
[2] = molecular target: T3, Medicago truncatula NFP ectodomain (NFP-ECD, residues 28-246), wild type, SEQ ID NO: 1 (Medicago truncatula, UniProt Q0GXS4); assay: Microscale thermophoresis (MST) binding of NFP to carbohydrate ligands; details: for Kd: read-out: Dissociation constant (Kd)
T3 construct: The Medicago truncatula NFP ectodomain (residues 28-246); AcMNPV gp67 signal peptide (replaces native signal peptide 1-27) (N); hexa-histidine tag (C); made in house; host or cells: Sf9 cells (Spodoptera frugiperda), baculovirus
Method: as §1, with “Point mutated versions of NFP were expressed and purified following the same protocol.” left out

[3] = molecular target: T3, Medicago truncatula NFP ectodomain (NFP-ECD, residues 28-246), wild type, SEQ ID NO: 1; assay: Biolayer interferometry (BLI) binding of NFP / NFP-ECD to immobilized LCO and CO ligands; details: further BLI assays, FIGS. 15B-15E, analyte 1.56-100 μM; listed as chitin
Method: as §1, §2, §3

[4] = molecular target: T4, Hordeum vulgare RLK10 (HvRLK10; HvLysM-RLK10) ectodomain (residues 25-231), SEQ ID NO: 29 (construct SEQ ID NO: 28) (Hordeum vulgare, UniProt A0A8I6Y103); assay: BLI binding of barley HvRLK10 ectodomain; set-up: species or system Hordeum vulgare (barley); details: FIGS. 13A, 13C-13D
T4 construct: full-length natural protein 633 aa beginning […]
T4 sequence (A0A8I6Y103 25-231): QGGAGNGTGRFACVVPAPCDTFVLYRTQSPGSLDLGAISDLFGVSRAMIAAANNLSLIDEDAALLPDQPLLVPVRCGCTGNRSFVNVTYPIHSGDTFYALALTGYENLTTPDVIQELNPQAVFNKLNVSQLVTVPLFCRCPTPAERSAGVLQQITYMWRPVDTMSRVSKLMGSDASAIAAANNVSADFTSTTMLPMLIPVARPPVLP

[5] = molecular target: T5, Medicago truncatula NFP ectodomain (NFP-ECD) variant L147D/L154D (parent SEQ ID NO: 1) (Medicago truncatula, UniProt Q0GXS4, L147D/L154D); assay: Biolayer interferometry (BLI) binding of hydrophobic patch mutant NFP L147D/L154D to S. meliloti LCO-IV
T5 construct: The Medicago truncatula NFP ectodomain (residues 28-246); AcMNPV gp67 signal peptide (replaces native signal peptide 1-27) (N); hexa-histidine tag (C); made in house; host or cells: Sf9 cells (Spodoptera frugiperda), baculovirus
T5 sequence (Q0GXS4 28-246 L147D/L154D): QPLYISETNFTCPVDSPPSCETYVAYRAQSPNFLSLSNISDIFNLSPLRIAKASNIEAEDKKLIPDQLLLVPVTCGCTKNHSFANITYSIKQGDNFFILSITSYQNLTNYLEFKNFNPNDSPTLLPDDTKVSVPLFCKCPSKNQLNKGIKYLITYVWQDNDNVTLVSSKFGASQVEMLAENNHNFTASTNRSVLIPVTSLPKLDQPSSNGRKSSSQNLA
Method: as §1
(§4) Creation of NFP point mutations: The NFP leucine residues L147 and L154 were replaced with aspartate residues. Aspartate is similar in size to leucine, but negatively charged where leucine is hydrophobic. Point mutants of NFP were engineered using site-directed mutagenesis. In particular, a double-mutated NFP was engineered where the leucine residues L147 and L154 were replaced with aspartate residues to create the mutant NFP L147D L154D. Point mutated versions of NFP were expressed and purified as described in Example 1.
(§5) NFP mutant binding assays: The binding assay using NFP wild type (WT) protein was replicated seven times, while the binding assay using the NFP mutant NFP L147D L154D was replicated four times.
Biolayer interferometry (BLI): Binding of NFP WT and NFP L147D/L154D mutant to S. meliloti LCO-IV was measured on an Octet RED 96 system (Pall ForteBio). […] Equilibrium dissociation constants derived from the steady-state were determined by applying a non-linear regression (one site, specific binding) to the response at equilibrium plotted against the protein concentration. Kinetic parameters were determined by non-linear regression (association followed by dissociation) on the subtracted data. […]

[6] = molecular target: T6, NFP L147D L154D ectodomain (Medicago truncatula, UniProt Q0GXS4, L147D/L154D); assay: BLI binding of hydrophobic patch mutant NFP-ECD to S. meliloti LCO-IV
T6 construct: The Medicago truncatula NFP ectodomain (residues 28-246) was codon-optimized; AcMNPV gp67 signal peptide (replaces native signal peptide 1-27) (N); made in house; host or cells: Sf9 (Spodoptera frugiperda), baculovirus, secreted into medium
T6 sequence (Q0GXS4 28-246 L147D/L154D): as above
Description: as §4, §5
Biolayer interferometry (BLI): Binding of NFP WT and NFP L147D/L154D mutant to S. meliloti LCO-IV was measured on an Octet RED 96 system (Pall ForteBio). S. meliloti LCO consists of a tetrameric/pentameric N-acetylglucosamine backbone that is O-sulfated on the reducing terminal residue, 0-acetylated on the non-reducing terminal residue, and mono-N-acylated by unsaturated C16 acyl groups. Biotinylated ligand conjugates were immobilized on streptavidin biosensors (kinetic quality, Pall ForteBio) at a concentration of 125-250 nM for 5 minutes. The binding assays were replicated 7 times for the NFP WT, and 4 times for the NFP L147D/L154D mutant. Data analysis was performed in GraphPad Prism 6 software (GraphPad Software, Inc.). Equilibrium dissociation constants derived from the steady-state were determined by applying a non-linear regression (one site, specific binding) to the response at equilibrium plotted against the protein concentration. Kinetic parameters were determined by non-linear regression (association followed by dissociation) on the subtracted data. Binding ofA. thaliana CERK1 (AtCERK1) to chitopentaose (C05) and chitooctaose (C08) was measured in the same way.

Compound: maltohexaose
binding to NFP (MST) (Medicago NFP ectodomain): not able to bind

Compound: CC(=O)N[C@H]1[C@H](O[C@H]2[C@H](O)[C@@H](NC(C)=O)[C@H](O[C@H]3[C@H](O)[C@@H](NC(C)=O)C(O)O[C@@H]3CO)O[C@@H]2CO)O[C@H](CO)[C@@H](O[C@@H]2O[C@H](CO)[C@@H](O[C@@H]3O[C@H](CO)[C@@H](O)[C@H](O)[C@H]3NC(C)=O)[C@H](O)[C@H]2NC(C)=O)[C@@H]1O (stereo partly drawn) [CO5]
NFP-ECD binding (BLI) [1]: did not bind; also recorded: does not bind | HvRLK10 ectodomain binding (BLI) (HvRLK10 ectodomain): did not bind | Kd [2]: 93 µM | Binding to NFP-ECD (in words) [3]: did not bind; also recorded: does not bind | Binding to HvRLK10 ectodomain (in words) [4]: did not bind

Compound: CCCCCC/C=C\CCCCC/C=C/C(=O)N[C@H]1[C@H](O[C@H]2[C@H](O)[C@@H](NC(C)=O)[C@H](O[C@H]3[C@H](O)[C@@H](NC(C)=O)[C@H](O[C@H]4[C@H](O)[C@@H](NC(C)=O)C(O)O[C@@H]4COS(=O)(=O)O)O[C@@H]3CO)O[C@@H]2CO)O[C@H](COC(C)=O)[C@@H](O)[C@@H]1O (stereo partly drawn) [S. meliloti LCO-IV]
Affinity change versus NFP WT (in words) ([5]; FIG. 4B): approximately two times lower affinity | Association (Kon) change versus NFP WT (in words) ([5]; FIG. 4B): almost unaffected | Dissociation (Koff), times faster than NFP WT ([5]; FIG. 4B): approximately 15 times | Association rate (kon), fold faster than WT NFP-ECD ([5]; FIGS. 16A-16C): 4.5 fold | Dissociation rate (koff), fold increase compared to WT NFP-ECD ([5]; FIGS. 16A-16C): 59 fold | affinity compared to NFP WT ([6]; FIG. 4B): approximately two times lower affinity | association (Kon) compared to NFP WT ([6]; FIG. 4B): almost unaffected | association rate (kon) faster than WT NFP-ECD ([6]; FIGS. 16A-16C): 4.5 fold | dissociation rate (koff) increase compared to WT NFP-ECD ([6]; FIGS. 16A-16C): 59 fold | lower affinity compared to WT NFP-ECD ([6]; FIGS. 16A-16C): 13 fold

Kd [2]: 150 µM
Compound: CC(=O)N[C@H]1[C@H](O[C@H]2[C@H](O)[C@@H](NC(C)=O)C(O)O[C@@H]2CO)O[C@H](CO)[C@@H](O[C@@H]2O[C@H](CO)[C@@H](O[C@@H]3O[C@H](CO)[C@@H](O)[C@H](O)[C@H]3NC(C)=O)[C@H](O)[C@H]2NC(C)=O)[C@@H]1O (stereo partly drawn) [CO4]

Binding to NFP (in words) [2]: not able to bind
Compound: OC[C@H]1O[C@H](O[C@H]2[C@H](O)[C@@H](O)[C@@H](O[C@H]3[C@H](O)[C@@H](O)[C@@H](O[C@H]4[C@H](O)[C@@H](O)[C@@H](O[C@H]5[C@H](O)[C@@H](O)[C@@H](O[C@H]6[C@H](O)[C@@H](O)C(O)O[C@@H]6CO)O[C@@H]5CO)O[C@@H]4CO)O[C@@H]3CO)O[C@@H]2CO)[C@H](O)[C@@H](O)[C@@H]1O (stereo partly drawn) [maltohexaose]
